pKi: −log10 of the molar value.

As a reminder, the pKi is −log10 of the Ki, conventionally taken in molar units.

In this test the target is Thymidylate synthase (Homo sapiens, UniProt P04818). Put plainly: Inhibition of compound against thymidylate synthetase.
Thymidylate synthase, sequence (P04818 whole entry): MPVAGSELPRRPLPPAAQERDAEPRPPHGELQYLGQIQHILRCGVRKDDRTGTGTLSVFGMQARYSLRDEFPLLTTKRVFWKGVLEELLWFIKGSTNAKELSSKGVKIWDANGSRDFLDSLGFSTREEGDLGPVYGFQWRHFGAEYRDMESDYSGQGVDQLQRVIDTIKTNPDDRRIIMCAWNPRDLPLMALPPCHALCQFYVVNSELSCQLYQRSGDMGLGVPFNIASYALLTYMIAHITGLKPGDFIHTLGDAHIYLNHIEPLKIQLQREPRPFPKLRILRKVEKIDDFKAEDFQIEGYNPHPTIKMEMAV
In turn, `CN(CC1CNc2nc(N)[nH]c(=O)c2N1Cc1c[nH]c(=O)[nH]c1=O)c1ccc(C(=O)NC(CCC(=O)O)C(=O)O)cc1` (stereo not drawn) showed a pKi of 6.12. For `NC1=NC(=O)C2C(=N1)CCC(CNc1ccc(C(=O)NC(CCC(=O)O)C(=O)O)cc1)N2Cc1cn([C@H]2C[C@H](O)[C@@H](COP(=O)(O)O)O2)c(=O)[nH]c1=O` (stereo partly drawn) the value was 7.52; for `CN1CCN(Cc2cn([C@H]3C[C@H](O)[C@@H](COP(=O)(O)O)O3)c(=O)[nH]c2=O)c2ccccc21`, 7.22.

Source of the values: ChEMBL document CHEMBL1124324, “Rational design of enzyme inhibitors: multisubstrate analogue inhibitors” (J Med Chem, 1989).
